Experimental data as given in PubChem BioAssay AID328 (DTP/NCI, 2004).
“And” between values parts separate entries of the source, which are not always exact repeats. Identical values can stand only once. Inconclusive results and toxic doses are left out. Starred links: 1 amine or outer side, 2 acyl side, 3 side chain; linkers in the order of their positions; H or OH if unused. Positions of bridges follow the written chain, without caps; N, C: chain ends. Non-standard residues stand in square brackets, D forms with d. Residues, ends and D or L forms follow the SMILES beside them. Chains are numbered I, II in the order given. Actinocin(9to1) = Cc1c2oc3c(C)ccc(C(=O)[*:1])c3nc-2c(C(=O)[*:2])c(N)c1=O; aThr = C[C@H](O)[C@H](N)C(=O)O; NMeV = CN[C@H](C(=O)O)C(C)C; Sar = CNCC(=O)O

Test system: BDF1 mice, P388 leukemia ip, median survival T/C
Assay: NCI In Vivo Anticancer Drug Screen. Data for tumor model P388 Leukemia (intraperitoneal) in B6D2F1 (BDF1) mice
Conditions: endpoint: median survival time, higher = longer survival
Method in brief: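 Transplantable tumour in mice; compound vs vehicle dosing; survival scored; ratio of treated to control reported.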

In the case of `Cc1c2oc3c(C)ccc(C(=O)N[C@@H]4C(=O)N[C@H](C(C)C)C(=O)N5CCC[C@H]5C(=O)N(C)CC(=O)N(C)[C@@H](C(C)C)C(=O)O[C@H]4C)c3nc-2c(C(=O)N[C@@H]2C(=O)N[C@H](C(C)C)C(=O)N3CCC[C@H]3C(=O)N(C)CC(=O)N(C)[C@@H](C(C)C)C(=O)O[C@H]2C)c(N)c1=O` (I: [aThr][dV]P[Sar][NMeV] / II: [aThr][dV]P[Sar][NMeV]; ester I:1-I:C, II:1-II:C; linker I:N-II:N via Actinocin(9to1)), the T/C (dose: 0.03 mg/kg/injection, schedule: Q01DX009 (ip), vehicle: saline) is reported as 233 % of control, the T/C (dose: 0.03 mg/kg/injection, schedule: Q04DX003 (ip), vehicle: saline + alcohol) is reported as 161 % of control and the T/C (dose: 0.06 mg/kg/injection, schedule: Q04DX003 (ip), vehicle: saline + alcohol) is reported as 157 % of control. The T/C (dose: 0.07 mg/kg/injection, schedule: Q01DX009 (ip), vehicle: saline) was 250 % of control, the T/C (dose: 0.1 mg/kg/injection, schedule: Q01DX001 (ip), vehicle: saline) was 194 % of control and the T/C (dose: 0.13 mg/kg/injection, schedule: Q01DX009 (ip), vehicle: saline) was 100 % of control. For the same molecule, the T/C (dose: 0.13 mg/kg/injection, schedule: Q04DX003 (ip), vehicle: saline + alcohol) was 184 % of control, the T/C (dose: 0.2 mg/kg/injection, schedule: Q01DX001 (ip), vehicle: saline) was 225 % of control and the T/C (dose: 0.25 mg/kg/injection, schedule: Q01DX001 (ip), vehicle: saline) was 178 % of control. The T/C (dose: 0.26 mg/kg/injection, schedule: Q01DX001 (ip), vehicle: saline) was 167 % of control, the T/C (dose: 0.3 mg/kg/injection, schedule: Q04DX003 (ip), vehicle: saline) was 100 % of control and the T/C (dose: 0.35 mg/kg/injection, schedule: Q01DX001 (ip), vehicle: other) was 166 % of control. For the same molecule, the T/C (dose: 0.35 mg/kg/injection, schedule: Q01DX001 (ip), vehicle: saline) was 176 % of control and 185 % of control, the T/C (dose: 0.35 mg/kg/injection, schedule: Q04DX003 (ip), vehicle: saline) was 95 % of control and the T/C (dose: 0.4 mg/kg/injection, schedule: Q01DX001 (ip), vehicle: water) was 183 % of control. For the same molecule, the T/C (dose: 0.4 mg/kg/injection, schedule: Q04DX003 (ip), vehicle: saline) was 90 % of control, the T/C (dose: 0.5 mg/kg/injection, schedule: Q01DX001 (ip), vehicle: other) was 192 % of control and the T/C (dose: 0.5 mg/kg/injection, schedule: Q04DX003 (ip), vehicle: saline + alcohol) was 79 % of control. The T/C (dose: 0.54 mg/kg/injection, schedule: Q01DX001 (ip), vehicle: saline) was 195 % of control, the T/C (dose: 0.6 mg/kg/injection, schedule: Q01DX001 (ip), vehicle: saline) was 223 % of control and the T/C (dose: 0.8 mg/kg/injection, schedule: Q01DX001 (ip), vehicle: other) was 236 % of control. The T/C (dose: 0.9 mg/kg/injection, schedule: Q01DX001 (ip), vehicle: saline) was 230 % of control, the T/C (dose: 1.2 mg/kg/injection, schedule: Q01DX001 (ip), vehicle: saline) was 225 % of control and the T/C (dose: 3.1 micrograms/kg/injection, schedule: Q01DX001 (ip), vehicle: saline) was 118 % of control. For the same molecule, the T/C (dose: 3.1 micrograms/kg/injection, schedule: Q01DX010 (ip), vehicle: saline) was 170 % of control, the T/C (dose: 3.1 micrograms/kg/injection, schedule: Q04DX003 (ip), vehicle: saline) was 113 % of control and the T/C (dose: 6.3 micrograms/kg/injection, schedule: Q01DX001 (ip), vehicle: saline) was 122 % of control. The T/C (dose: 12.5 micrograms/kg/injection, schedule: Q01DX009 (ip), vehicle: saline) was 177 % of control, the T/C (dose: 12.5 micrograms/kg/injection, schedule: Q01DX009 (ip), vehicle: water) was 153 % of control and the T/C (dose: 12.5 micrograms/kg/injection, schedule: Q01DX010 (ip), vehicle: saline) was 225 % of control. The T/C (dose: 12.5 micrograms/kg/injection, schedule: Q04DX003 (ip), vehicle: saline) was 154 % of control, the T/C (dose: 21.6 micrograms/kg/injection, schedule: Q01DX009 (ip), vehicle: saline + alcohol) was 238 % of control and the T/C (dose: 25.0 micrograms/kg/injection, schedule: Q01DX009 (ip), vehicle: saline + alcohol) was 294 % of control and 162 % of control. For the same molecule, the T/C (dose: 25.0 micrograms/kg/injection, schedule: Q01DX009 (ip), vehicle: saline) was 250 % of control and 274 % of control and 200 % of control, the T/C (dose: 25.0 micrograms/kg/injection, schedule: Q01DX009 (ip), vehicle: water) was 155 % of control and the T/C (dose: 25.0 micrograms/kg/injection, schedule: Q01DX010 (ip), vehicle: saline) was 245 % of control. For the same molecule, the T/C (dose: 25.0 micrograms/kg/injection, schedule: Q03HX024 (ip), vehicle: saline) was 263 % of control, the T/C (dose: 25.0 micrograms/kg/injection, schedule: Q04DX003 (ip), vehicle: saline) was 154 % of control and the T/C (dose: 30.0 micrograms/kg/injection, schedule: Q03HX024 (ip), vehicle: saline) was 250 % of control. The T/C (dose: 35.0 micrograms/kg/injection, schedule: Q03HX024 (ip), vehicle: saline) was 100 % of control, the T/C (dose: 36.0 micrograms/kg/injection, schedule: Q01DX009 (ip), vehicle: saline + alcohol) was 241 % of control and 314 % of control and the T/C (dose: 37.5 micrograms/kg/injection, schedule: Q01DX009 (ip), vehicle: saline + alcohol) was 228 % of control and 169 % of control. For the same molecule, the T/C (dose: 38.9 micrograms/kg/injection, schedule: Q04DX003 (ip), vehicle: saline + alcohol) was 174 % of control, the T/C (dose: 50.0 micrograms/kg/injection, schedule: Q01DX001 (ip), vehicle: saline) was 154 % of control and the T/C (dose: 50.0 micrograms/kg/injection, schedule: Q01DX009 (ip), vehicle: saline + alcohol) was 281 % of control and 294 % of control and 191 % of control. The T/C (dose: 50.0 micrograms/kg/injection, schedule: Q01DX009 (ip), vehicle: saline) was 268 % of control and 271 % of control and 352 % of control, the T/C (dose: 50.0 micrograms/kg/injection, schedule: Q01DX009 (ip), vehicle: water) was 301 % of control and 106 % of control and the T/C (dose: 50.0 micrograms/kg/injection, schedule: Q01DX010 (ip), vehicle: other) was 295 % of control. The T/C (dose: 50.0 micrograms/kg/injection, schedule: Q01DX010 (ip), vehicle: saline) was 295 % of control and 300 % of control, the T/C (dose: 50.0 micrograms/kg/injection, schedule: Q04DX003 (ip), vehicle: saline) was 177 % of control and the T/C (dose: 60.0 micrograms/kg/injection, schedule: Q01DX009 (ip), vehicle: saline + alcohol) was 314 % of control and 348 % of control. For the same molecule, the T/C (dose: 64.8 micrograms/kg/injection, schedule: Q04DX003 (ip), vehicle: saline + alcohol) was 168 % of control, the T/C (dose: 75.0 micrograms/kg/injection, schedule: Q01DX009 (ip), vehicle: saline + alcohol) was 292 % of control and 99 % of control and the T/C (dose: 75.0 micrograms/kg/injection, schedule: Q01DX009 (ip), vehicle: saline) was 100 % of control. For the same molecule, the T/C (dose: 75.0 micrograms/kg/injection, schedule: Q04DX003 (ip), vehicle: saline + alcohol) was 247 % of control, the T/C (dose: 75.0 micrograms/kg/injection, schedule: Q04DX003 (ip), vehicle: saline) was 257 % of control and 182 % of control and the T/C (dose: 75.0 micrograms/kg/injection, schedule: Q04DX003 (ip), vehicle: water) was 183 % of control. For the same molecule, the T/C (dose: 100.0 micrograms/kg/injection, schedule: Q01DX001 (ip), vehicle: saline) was 168 % of control, the T/C (dose: 100.0 micrograms/kg/injection, schedule: Q01DX009 (ip), vehicle: saline) was 91 % of control and 107 % of control and the T/C (dose: 100.0 micrograms/kg/injection, schedule: Q01DX009 (ip), vehicle: water) was 336 % of control. The T/C (dose: 100.0 micrograms/kg/injection, schedule: Q01DX010 (ip), vehicle: saline) was 105 % of control and 120 % of control, the T/C (dose: 100.0 micrograms/kg/injection, schedule: Q04DX003 (ip), vehicle: saline) was 231 % of control and the T/C (dose: 112.5 micrograms/kg/injection, schedule: Q04DX003 (ip), vehicle: saline + alcohol) was 274 % of control and 161 % of control. For the same molecule, the T/C (dose: 150.0 micrograms/kg/injection, schedule: Q04DX003 (ip), vehicle: saline) was 273 % of control and 306 % of control, the T/C (dose: 200.0 micrograms/kg/injection, schedule: Q01DX001 (ip), vehicle: saline) was 177 % of control and the T/C (dose: 200.0 micrograms/kg/injection, schedule: Q01DX010 (ip), vehicle: saline) was 90 % of control. For the same molecule, the T/C (dose: 225.0 micrograms/kg/injection, schedule: Q04DX003 (ip), vehicle: saline + alcohol) was 290 % of control and 327 % of control and 182 % of control, the T/C (dose: 300.0 micrograms/kg/injection, schedule: Q04DX003 (ip), vehicle: saline) was 361 % of control and the T/C (dose: 300.0 micrograms/kg/injection, schedule: Q04DX003 (ip), vehicle: water) was 232 % of control. For the same molecule, the T/C (dose: 400.0 micrograms/kg/injection, schedule: Q01DX001 (ip), vehicle: saline) was 227 % of control, the T/C (dose: 400.0 micrograms/kg/injection, schedule: Q04DX003 (ip), vehicle: saline) was 236 % of control and the T/C (dose: 600.0 micrograms/kg/injection, schedule: Q04DX003 (ip), vehicle: saline + alcohol) was 118 % of control. The T/C (dose: 600.0 micrograms/kg/injection, schedule: Q04DX003 (ip), vehicle: water) was 189 % of control.
